# Measured values as given in paper PMC11988800, “A Comprehensive In Vitro and In Silico Approach for Targeting 4-Hydroxyphenyl Pyruvate Dioxygenase: Towards New Therapeutics for Alkaptonuria” (International Journal of Molecular Sciences, 2025).
# Read-outs that look alike come from different tables or passages of the source.
# How the values were obtained:
# human 4-HPPD [1] = target: T1, human 4-HPPD (Homo sapiens, UniProt P32754); assay: Residence time evaluation by optimized jump dilution method in recombinant E. coli expressing human 4-HPPD
# T1 sequence (P32754 whole entry): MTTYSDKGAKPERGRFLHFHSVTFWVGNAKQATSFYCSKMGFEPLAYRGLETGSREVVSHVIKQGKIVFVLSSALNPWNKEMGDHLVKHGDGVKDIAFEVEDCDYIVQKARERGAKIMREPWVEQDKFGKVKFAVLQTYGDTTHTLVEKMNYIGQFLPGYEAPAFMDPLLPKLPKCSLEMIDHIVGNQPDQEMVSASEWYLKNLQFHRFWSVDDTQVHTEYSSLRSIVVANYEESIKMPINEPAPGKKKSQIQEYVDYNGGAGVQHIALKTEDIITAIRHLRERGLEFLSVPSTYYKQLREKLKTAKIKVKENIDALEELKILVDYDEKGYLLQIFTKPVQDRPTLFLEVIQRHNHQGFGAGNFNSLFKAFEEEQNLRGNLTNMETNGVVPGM
# Experimental: (§1) 4-HPPD was initially incubated with each compound at saturating concentrations, and the exhaust medium (containing the inhibitor) was removed and replaced with fresh medium without the inhibitor, while the precursor (tyrosine) was added to the substrate. Enzyme activity was monitored by measuring the formation of ochronotic pigment consequent to the formation of HGA. Each inhibitor was analyzed in duplicate, and the analyses were repeated at least three times. In each experiment, control tests were set up as follows: a blank (control without induction), a control without inhibition, and a control with inhibition.
# (§2) An optimized version of the jump dilution method was employed to evaluate the residence time of the novel candidate 4-HPPD inhibitors. […] This approach allowed precise tracking of reaction kinetics with high temporal resolution. After determining the IC50 and IC90 values for each tested compound, the enzyme was incubated with the inhibitors at concentrations corresponding to IC90. The exhaust medium containing the inhibitor was subsequently replaced with a fresh and inhibitor-free medium supplemented with tyrosine, the substrate precursor. The recovery of enzymatic activity was monitored over time using spectrophotometric analysis. This analytical approach provided precise measurements of the residence time for each inhibitor.
# (§3) Each test was performed in duplicate, and the experiments were replicated at least three times. The tubes were half-capped and stirred at room temperature overnight.
# (§4) The tubes were centrifuged at 2500× g for 10 min at 20 °C. The supernatant (exhaust medium) was discarded, while the pellet was resuspended in 7 mL of fresh LBK medium.
# (§5) The tubes were incubated at 37 °C with stirring after taking the first sample (T0). Then, every 45 min for a period of 8 h, 220 μL were taken from each tube and placed in an Eppendorf tube, which was centrifuged at 13,000× g for 5 min at 4 °C. Subsequently, 200 μL of supernatant (pigmented medium) from each Eppendorf tube was transferred to a 96-well standard plate, and the absorbance at 405 nm was measured using a multimode plate reader (EnVision 2105, PerkinElmer Inc., Waltham, MA, USA).
# (§6) Linear regression analysis was performed to calculate the slope values for each of the two curves corresponding to vs and v0 . These two parameters were then substituted into the equation below and reported for the nonlinear regression analysis of the data related to the tested compounds: Y=vsX+v0−vs /K (1−e^−KX) • Y: Absorbance value (HGA accumulation); • X: time (min); • vs : steady-state velocity; • v0: initial velocity; • K: koff .
# human 4-HPPD [2] = target: T1, human 4-HPPD; assay: Inhibition assay (IC50/IC90): ochronotic pigment formation in recombinant E. coli expressing human 4-HPPD
# Experimental: To do so, an inhibition assay was set up to test the compounds at different concentrations. The bacterial suspension was incubated in a medium containing 1 mM IPTG, 75 µM Tyr, and the tested inhibitor, monitoring the formation of the ochronotic pigment at 405 nm after 24 h.
# The pre-inoculum was prepared in LB medium (Lysogeny Broth) supplemented with glucose (1% final concentration) and kanamycin sulfate (50 µg/mL final concentration). […] The pre-inoculum was incubated overnight at 37 °C under agitation. After measuring the OD600 of the pre-inoculum using LB medium as a blank, it was diluted to a final optical density of 0.1 in LB medium supplemented with kanamycin (LBK). The cell culture was shaken at 37 °C, and the OD600 was measured every 45 min until reaching the mid-log phase (0.6–0.8). Protein expression was then induced by adding isopropyl-β-D-thiogalactopyranoside (IPTG) [26, 27, 28].
# Briefly, serial dilutions of the inhibitors were prepared in 96-deep well standard plates, starting from a stock solution of 10^−2 M, and then 600 µL of bacterial suspension (see Section 4.1.1) supplemented with 1 mM IPTG and 75 µg/mL Tyr were added into each well.
# In parallel, the control tests were set up as follows: • - Blank: culture medium without cell suspension. • - Negative control: cell suspension without IPTG and Tyr. • - Not-Inhibited control: cell suspension supplemented with 1 mM IPTG and 75 µg/mL Tyr.
# The plate was incubated on a microplate shaker at 800 rpm for 24 h.
# The plates were centrifuged at 3200× g for 10 min at 4 °C. Subsequently, 150 μL of supernatant (pigmented medium) was transferred to a 96-well standard plate, and the absorbance was measured at 405 nm using a multimode plate reader (EnVision 2105, PerkinElmer Inc., Waltham, MA, USA). GraphPad Prism 8 was used to perform a nonlinear regression analysis (Log[Inhibitor] vs. response—Variable slope (four parameters)) and to obtain the inhibition curve of the compounds.
# human 4-HPPD [3] = target: T1, human 4-HPPD
# Experimental: as §1, §2, §3, §4, §5, §6
structure (smiles),measurement,setting,value
"CC1(C)CC(=O)C(C(=O)c2ccc(C(F)(F)F)cc2[N+](=O)[O-])C(=O)C1 [c5, 5,5-dimethyl-2-(2-nitro-4-(trifluoromethyl)benzoyl)cyclohexane-1,3-dione]",koff,human 4-HPPD [1],5e-05 s⁻¹
same,residence time,human 4-HPPD [1],352 ± 53.1 min
same,residence time (τ),human 4-HPPD [1]; derived from koff,higher residence time value than NTBC
same,IC90,human 4-HPPD [2],8000 nM
"CS(=O)(=O)c1ccc(C(=O)C2C(=O)CCCC2=O)c([N+](=O)[O-])c1 [c1, mesotrione]",koff,human 4-HPPD [1],6.67e-05 s⁻¹
same,residence time,human 4-HPPD [1],228 ± 27.6 min
same,residence time (τ),human 4-HPPD [1]; derived from koff,higher residence time value than NTBC
same,IC90,human 4-HPPD [2],2000 nM
"O=C1CCCC(=O)C1C(=O)c1ccc([N+](=O)[O-])cc1Cl [c6, 2-(2-chloro-4-nitrobenzoyl)1,3-cyclohexanedione]",koff,human 4-HPPD [1],0.000133 s⁻¹
same,residence time,human 4-HPPD [1],119 ± 4.87 min
same,residence time (τ),human 4-HPPD [1]; derived from koff,higher residence time value than NTBC
same,IC90,human 4-HPPD [2],8000 nM
"CS(=O)(=O)c1ccc(C(=O)C2C(=O)CCCC2=O)c(Cl)c1COCC(F)(F)F [c2, tembotrione]",koff,human 4-HPPD [1],0.000183 s⁻¹
same,residence time,human 4-HPPD [1],94 ± 23.5 min
same,half-life (t 1/2),human 4-HPPD [3],1.0852 ± 0.27142 h
same,IC90,human 4-HPPD [2],500 nM
"CC1(C)CC(=O)C(C(=O)c2ccc([N+](=O)[O-])cc2Cl)C(=O)C1 [c4, 5,5-dimethylcyclohexane-2-(2-chloro-4-nitrobenzoyl)-1,3-dione]",half-life (t 1/2),human 4-HPPD [3],1.4964 ± 0.23042 h
"CS(=O)(=O)c1ccc(C(=O)C2C(=O)CCCC2=O)c(Cl)c1 [c3, Sulcotrione]",koff,human 4-HPPD [1],0.000167 s⁻¹
same,residence time,human 4-HPPD [1],120 ± 57.6 min
same,residence time (τ),human 4-HPPD [1],higher residence time value than NTBC
same,half-life (t 1/2),human 4-HPPD [3],1.3911 ± 0.66537 h
same,IC90,human 4-HPPD [2],200 nM
"CC1(C)CC(=O)C=C(OC(=O)c2ccc(C(F)(F)F)cc2Cl)C1 [c7, 5,5-dimethyl-3-oxocyclohexenyl 2-chloro-4-(trifluoromethyl) benzoate]",half-life (t 1/2),human 4-HPPD [3],0.3749 ± 0.04297 h
